US20240239752A1, “BICYCLIC HETEROAROMATIC INHIBITORS OF KLK5” (BioCryst Pharmaceuticals, Inc., priority 2021, published 2024)

What follows are molecules tested against T1, recombinant human KLK5 (Homo sapiens, UniProt Q9Y337) (assay: Kallikrein (KLK) 5 enzymatic assay (Boc-VPR-AMC fluorogenic substrate)). Conditions: recombinant human KLK5 0.1 μg/well, Boc-VPR-AMC 100 μM, pH 7.5, room temperature, 1% DMSO; tested a minimum of three times.
T1 construct: purchased Novoprotein or R&D Systems C415 or 1108-SE
T1 sequence (Q9Y337 23-293): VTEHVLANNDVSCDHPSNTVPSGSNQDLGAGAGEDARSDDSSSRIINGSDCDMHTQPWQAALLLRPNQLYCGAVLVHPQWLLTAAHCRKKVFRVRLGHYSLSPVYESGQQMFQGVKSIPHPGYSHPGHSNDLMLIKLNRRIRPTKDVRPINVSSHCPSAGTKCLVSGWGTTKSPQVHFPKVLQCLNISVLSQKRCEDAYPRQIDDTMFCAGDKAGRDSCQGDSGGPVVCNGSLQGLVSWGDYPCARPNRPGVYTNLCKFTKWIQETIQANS
Assay type: biochemical
Outline: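 Fluorogenic rate assay at pH 7.5 (0.1 M NaH2PO4, 1% DMSO, room temperature), run at least three times per compound. Compound was premixed with 0.1 μg/well recombinant human KLK5 before adding 100 μM Boc-VPR-AMC; AMC release was read at ex 380/em 460 nm, and IC50 derived from inhibition of rate vs DMSO control.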
Molecule `Nc1nccc2c(-c3ccc4c(c3)[C@H](Oc3cc(C(F)(F)F)ccc3CC(=O)O)CC4)cccc12` [Compound 428b, (R)-2-(2-((6-(1-aminoisoquinolin-5-yl)-2,3-dihydro-1H-inden-1-yl)oxy)-4-(trifluoromethyl)phenyl)acetic acid] has an IC50 of less than 1 µM.
Work on `N#Cc1cccc(CC(=O)O)c1O[C@@H]1CCc2ccc(-c3ccc4ccnc(N)c4c3)cc21` [Compound 429d, (R)-2-(2-((6-(1-aminoisoquinolin-7-yl)-2,3-dihydro-1H-inden-1-yl)oxy)-3-cyanophenyl)acetic acid] yielded an IC50 of 1 to 10 µM.
In the case of `N#Cc1cccc(CC(=O)O)c1O[C@@H]1CCc2ccc(-c3cccc4c(N)nccc34)cc21` [Compound 430b, (R)-2-(2-((6-(1-aminoisoquinolin-5-yl)-2,3-dihydro-1H-inden-1-yl)oxy)-3-cyanophenyl)acetic acid], the IC50 is reported as 1 to 10 µM.
Work on `COc1ccc(O[C@@H]2CCc3ccc(-c4cccc5c(N)nccc45)cc32)c(CC(=O)O)c1` [Compound 431c, (R)-2-(2-((6-(1-aminoisoquinolin-5-yl)-2,3-dihydro-1H-inden-1-yl)oxy)-5-methoxyphenyl)acetic acid] yielded an IC50 of less than 1 µM.
`N#Cc1cccc(O[C@@H]2CCc3ccc(-c4ccc5ccnc(N)c5c4)cc32)c1CC(=O)O` [Compound 432c, (R)-2-(2-((6-(1-aminoisoquinolin-7-yl)-2,3-dihydro-1H-inden-1-yl)oxy)-6-cyanophenyl)acetic acid] was tested, and the IC50 was 1 to 10 µM.
Work on `N#Cc1cccc(O[C@@H]2CCc3ccc(-c4cccc5c(N)nccc45)cc32)c1CC(=O)O` [Compound 433b, (R)-2-(2-((6-(1-aminoisoquinolin-5-yl)-2,3-dihydro-1H-inden-1-yl)oxy)-6-cyanophenyl)acetic acid] yielded an IC50 of less than 1 µM.
`Nc1nccc2ccc(-c3ccc4c(c3)[C@H](Oc3cccc(OC(F)(F)F)c3CC(=O)O)CC4)cc12` [Compound 434c, (R)-2-(2-((6-(1-aminoisoquinolin-7-yl)-2,3-dihydro-1H-inden-1-yl)oxy)-6-(trifluoromethoxy)phenyl)acetic acid] was tested, and the IC50 was 1 to 10 µM.
For `Nc1nccc2c(-c3ccc4c(c3)[C@H](Oc3cccc(OC(F)(F)F)c3CC(=O)O)CC4)cccc12` [Compound 435b, (R)-2-(2-((6-(1-aminoisoquinolin-5-yl)-2,3-dihydro-1H-inden-1-yl)oxy)-6-(trifluoromethoxy)phenyl)acetic acid], the IC50 was less than 1 µM.
`CCN1CCC2(CC1)C[C@@H](Oc1ccccc1CC(=O)O)c1cc(-c3ccc4ccnc(N)c4c3)ccc12` [Compound 436b, (R)-2-(2-((5-(1-aminoisoquinolin-7-yl)-1′-ethyl-2,3-dihydrospiro[indene-1,4′-piperidin]-3-yl)oxy)phenyl)acetic acid] showed an IC50 of less than 1 µM.
`CC1(C)Cc2ccc(-c3cccc4c(N)nccc34)cc2C1Oc1ccccc1CC(=O)O` (stereo not shown) [Compound 437f, 2-(2-((6-(1-aminoisoquinolin-5-yl)-2,2-dimethyl-2,3-dihydro-1H-inden-1-yl)oxy)phenyl)acetic acid] was tested, and the IC50 was less than 1 µM.
With `CC1(C)Cc2ccc(-c3cccc4c(N)nccc34)cc2C1Oc1cc(F)ccc1CC(=O)O` (stereo not shown) [Compound 438c, 2-(2-((6-(1-aminoisoquinolin-5-yl)-2,2-dimethyl-2,3-dihydro-1H-inden-1-yl)oxy)-4-fluorophenyl)acetic acid] the IC50 was less than 1 µM.
Molecule `CC1(C)Cc2ccc(-c3ccc4ccnc(N)c4c3)cc2C1Oc1cc(F)ccc1CC(=O)O` (stereo not shown) [Compound 439b, 2-(2-((6-(1-aminoisoquinolin-7-yl)-2,2-dimethyl-2,3-dihydro-1H-inden-1-yl)oxy)-4-fluorophenyl)acetic acid] has an IC50 of 1 to 10 µM.
For `COc1ccc(CC(=O)O)c(OC2c3cc(-c4cccc5c(N)nccc45)ccc3CC2(C)C)c1` (stereo not shown) [Compound 440c, 2-(2-((6-(1-aminoisoquinolin-5-yl)-2,2-dimethyl-2,3-dihydro-1H-inden-1-yl)oxy)-4-methoxyphenyl)acetic acid], the IC50 was less than 1 µM.
